Laboratory results published in PubChem BioAssay (NCI).
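Interpolation was linear, between the two tested concentrations surrounding the appropriate level; five concentrations were tested over 48 hours in 96-well plates. GI50 = concentration required for 50% inhibition of growth. At the TGI there is no net growth.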

What was measured:
Experiment in all cases: NCI anticancer screen, dose series, 48 h
COLO 205 colon = test system: COLO 205 colon
NCI-H226 lung = test system: NCI-H226 lung
HOP-62 NSCLC = test system: HOP-62 NSCLC
NCI-H522 lung = test system: NCI-H522 lung
CCRF-CEM leukemia = test system: CCRF-CEM leukemia
K-562 leukemia = test system: K-562 leukemia
SW-620 colon = test system: SW-620 colon
UACC-62 melanoma = test system: UACC-62 melanoma
RXF 393 renal = test system: RXF 393 renal
MALME-3M melanoma = test system: MALME-3M melanoma
HT29 colon = test system: HT29 colon
HCT-15 colon = test system: HCT-15 colon
RPMI-8226 leukemia = test system: RPMI-8226 leukemia
M14 melanoma = test system: M14 melanoma
SK-MEL-5 melanoma = test system: SK-MEL-5 melanoma
SF-268 CNS = test system: SF-268 CNS
KM12 colon = test system: KM12 colon
SNB-19 CNS = test system: SNB-19 CNS
UACC-257 melanoma = test system: UACC-257 melanoma
U251 CNS = test system: U251 CNS
EKVX NSCLC = test system: EKVX NSCLC
HCT-116 colon = test system: HCT-116 colon
A549 NSCLC = test system: A549 NSCLC
MDA-MB-231 breast = test system: MDA-MB-231 breast
MDA-MB-468 breast = test system: MDA-MB-468 breast
MCF7 breast = test system: MCF7 breast
HS 578T breast = test system: HS 578T breast
MDA-MB-435 = test system: MDA-MB-435
LOX IMVI melanoma = test system: LOX IMVI melanoma

`O=C(O)c1ccc(-c2ccc(/C=N/NC(=O)c3[nH]c4ccc(Br)cc4c3-c3ccccc3)o2)cc1` gave a GI50 (COLO 205 colon) of 26.4 µM, a TGI (COLO 205 colon) of 83.8 µM and a GI50 (NCI-H226 lung) of 34.5 µM. For the same compound, the TGI (NCI-H226 lung) was over 100 µM, the GI50 (HOP-62 NSCLC) was 29.5 µM and the TGI (HOP-62 NSCLC) was over 100 µM. For the same compound, the GI50 (NCI-H522 lung) was 7.64 µM, the TGI (NCI-H522 lung) was 34.4 µM and the GI50 (CCRF-CEM leukemia) was 19.3 µM. It also gave a TGI (CCRF-CEM leukemia) of over 100 µM, a GI50 (K-562 leukemia) of 20.8 µM and a TGI (K-562 leukemia) of 98.4 µM. The GI50 (SW-620 colon) was 25.4 µM, the TGI (SW-620 colon) was over 100 µM and the GI50 (UACC-62 melanoma) was 4.98 µM. The TGI (UACC-62 melanoma) was 25.2 µM, the GI50 (RXF 393 renal) was 11.3 µM and the TGI (RXF 393 renal) was 95.1 µM. It also gave a GI50 (MALME-3M melanoma) of 19.1 µM, a TGI (MALME-3M melanoma) of over 100 µM and a GI50 (HT29 colon) of 21.9 µM. It also gave a TGI (HT29 colon) of 54.7 µM, a GI50 (HCT-15 colon) of 18.6 µM and a TGI (HCT-15 colon) of over 100 µM. It also gave a GI50 (RPMI-8226 leukemia) of 25.9 µM, a TGI (RPMI-8226 leukemia) of over 100 µM and a GI50 (M14 melanoma) of 29.8 µM. For the same compound, the TGI (M14 melanoma) was over 100 µM, the GI50 (SK-MEL-5 melanoma) was 15.7 µM and the TGI (SK-MEL-5 melanoma) was 33 µM. It also gave a GI50 (SF-268 CNS) of 20.8 µM, a TGI (SF-268 CNS) of over 100 µM and a GI50 (KM12 colon) of 22.4 µM. It also gave a TGI (KM12 colon) of 66.2 µM, a GI50 (SNB-19 CNS) of 21.6 µM and a TGI (SNB-19 CNS) of over 100 µM. The GI50 (UACC-257 melanoma) was 24.5 µM, the TGI (UACC-257 melanoma) was over 100 µM and the GI50 (U251 CNS) was 20 µM. It also gave a TGI (U251 CNS) of 83.1 µM, a GI50 (EKVX NSCLC) of 28.8 µM and a TGI (EKVX NSCLC) of over 100 µM. For the same compound, the GI50 (HCT-116 colon) was 27.7 µM, the TGI (HCT-116 colon) was over 100 µM and the GI50 (A549 NSCLC) was 32.3 µM. For the same compound, the TGI (A549 NSCLC) was over 100 µM, the GI50 (MDA-MB-231 breast) was 27.9 µM and the TGI (MDA-MB-231 breast) was over 100 µM. For the same compound, the GI50 (MDA-MB-468 breast) was 19.5 µM, the TGI (MDA-MB-468 breast) was 79.6 µM and the GI50 (MCF7 breast) was 28.3 µM. It also gave a TGI (MCF7 breast) of over 100 µM, a GI50 (HS 578T breast) of 3.87 µM and a TGI (HS 578T breast) of 72 µM. The GI50 (MDA-MB-435) was 12.5 µM, the TGI (MDA-MB-435) was 41.1 µM and the GI50 (LOX IMVI melanoma) was 20 µM. The TGI (LOX IMVI melanoma) was over 100 µM.
